# Experimental data taken from patent US20090299049A1, “Bicyclic Compounds and Their Use” (priority 2006, published 2009).
# How the values were obtained:
# [1] = Optical properties: UV-visible spectra, fluorescence excitation and emission; assay type: physicochemical; conditions: for Stokes shift: (1/λex − 1 λem); for λem: fluorescence emission wavelength; for λex: fluorescence excitation wavelength; for HOMO-LUMO gap relative to compound 5a: inferred from UV-visible spectrum
# Description: The optical properties of several novel chromophores were investigated. UV-visible spectra reveal an intense absorption in the UV region for all the compounds evaluated.
# [2] = UV absorbance and fluorescence of ribonucleoside analogues in DMSO (molar extinction coefficient, quantum yield); assay type: physicochemical; conditions: for Quantum yield: relative to quinine sulphate and anthracene standards
# Description: UV absorbance and fluorescence excitation and emission data were used to determine the molar extinction coefficient and fluorescence quantum yield of a several adenosine and guanosine ribonucleoside analogues in DMSO (see the Table below). The data acquired support the concept that the fluorescence properties of these analogues can be tuned by altering the electron-donating or electron-withdrawing R-group on the terminal phenylalkyne. Fourteen electron-donating or electron-withdrawing R-groups were coupled to purine bases at the 8-position. […] This makes the analogues extremely useful for the quantification of analogue-containing nucleic acid products in a DNA or RNA background. […] The position (ortho, meta or para) of the R-group on the phenyl ring can also be used to tune the fluorescent properties of the analogues. The ring position of the R-group has a smaller effect on the fluorescent properties of the analogues. Greater changes in the excitation/emission wavelength, molar extinction coefficient and quantum yield can be induced by changing the type of R-group (electron-donating vs. electron-withdrawing) as compared to the position of a R-group on the phenyl ring (ortho, meta or para). The quantum yields of the unphosphorylated analogues were measured relative to quinine sulphate and anthracene standards. […] This provides additional support for the idea that the purine bases can both push and pull electrons in π-conjugated systems.
molecule,measurement,setting,value
8-(1′-Ethynylferrocene)adenosine [Compound 6i],Stokes shift,[1],3986 cm⁻¹
same,λem,[1],434 nm
same,λex,[1],370 nm
8-(1′-Ethynylferrocene)guanosine [Compound 5i],Stokes shift,[1],3537 cm⁻¹
same,λem,[1],439 nm
same,λex,[1],380 nm
Nc1ncnc2c1nc(C#Cc1cccc(C(F)(F)F)c1)n2[C@@H]1O[C@H](CO)[C@@H](O)[C@H]1O [Adenosine —CF3 meta],Molar absorption coefficient,[2],19547 M⁻¹ cm⁻¹
same,Wavelength at fluorescence emission maximum,[2],421 nm
same,Wavelength at maximum in UV absorption,[2],326 nm
same,Quantum yield,[2],21%
Nc1ncnc2c1nc(C#Cc1ccc(Cl)cc1)n2[C@@H]1O[C@H](CO)[C@@H](O)[C@H]1O [Adenosine —Cl para],Molar absorption coefficient,[2],23927 M⁻¹ cm⁻¹
same,Wavelength at fluorescence emission maximum,[2],410 nm
same,Wavelength at maximum in UV absorption,[2],326 nm
same,Quantum yield,[2],46%
Nc1ncnc2c1nc(C#Cc1ccc(F)cc1)n2[C@@H]1O[C@H](CO)[C@@H](O)[C@H]1O [Adenosine —F para],Molar absorption coefficient,[2],5558 M⁻¹ cm⁻¹
same,Wavelength at fluorescence emission maximum,[2],396 nm
same,Wavelength at maximum in UV absorption,[2],320 nm
same,Quantum yield,[2],40%
COc1cccc(C#Cc2nc3c(N)ncnc3n2[C@@H]2O[C@H](CO)[C@@H](O)[C@H]2O)c1 [Adenosine —OCH3 meta],Molar absorption coefficient,[2],19589 M⁻¹ cm⁻¹
same,Wavelength at fluorescence emission maximum,[2],400 nm
same,Wavelength at maximum in UV absorption,[2],324 nm
same,Quantum yield,[2],52%
COc1ccccc1C#Cc1nc2c(N)ncnc2n1[C@@H]1O[C@H](CO)[C@@H](O)[C@H]1O [Adenosine —OCH3 ortho],Wavelength at fluorescence emission maximum,[2],429 nm
same,Wavelength at maximum in UV absorption,[2],333 nm
same,Quantum yield,[2],21%
"Nc1nc2c(nc(C#Cc3ccccc3)n2[C@@H]2O[C@H](CO)[C@@H](O)[C@H]2O)c(=O)[nH]1 [Compound 5a, 8-(Phenylethynyl)guanosine]",Stokes shift,[1],4196 cm⁻¹
same,λem,[1],438 nm
same,λex,[1],370 nm
same,Wavelength at fluorescence emission maximum,[2],416 nm
same,Wavelength at maximum in UV absorption,[2],330 nm
same,Quantum yield,[2],2.7%
same,melting point,,234 to 236 °C (dec.)
"Cc1ccc(C#Cc2nc3c(=O)[nH]c(N)nc3n2[C@@H]2O[C@H](CO)[C@@H](O)[C@H]2O)cc1 [Compound 5b, 8-(4′-Methylphenylethynyl)guanosine]",Stokes shift,[1],3452 cm⁻¹
same,λem,[1],415 nm
same,λex,[1],363 nm
same,Molar absorption coefficient,[2],16591 M⁻¹ cm⁻¹
same,Wavelength at fluorescence emission maximum,[2],409 nm
same,Wavelength at maximum in UV absorption,[2],331 nm
same,Quantum yield,[2],3.1%
same,melting point,,222 to 226 °C (dec.)
"COc1ccc(C#Cc2nc3c(=O)[nH]c(N)nc3n2[C@@H]2O[C@H](CO)[C@@H](O)[C@H]2O)cc1 [Compound 5c, 8-(4-Methoxyphenylethynyl)guanosine]",UV-visible spectrum shift relative to compound 5a (parent),[1],red-shifted
same,Stokes shift,[1],2749 cm⁻¹
same,λem,[1],402 nm
same,λex,[1],362 nm
same,HOMO-LUMO gap relative to compound 5a,[1],smaller HOMO-LUMO gap
same,Molar absorption coefficient,[2],22569 M⁻¹ cm⁻¹
same,Wavelength at fluorescence emission maximum,[2],398 nm
same,Wavelength at maximum in UV absorption,[2],330 nm
same,Quantum yield,[2],1.2%
same,melting point,,220 to 224 °C (dec.)
"CSc1ccc(C#Cc2nc3c(=O)[nH]c(N)nc3n2[C@@H]2O[C@H](CO)[C@@H](O)[C@H]2O)cc1 [Compound 5d, 8-(4-Methylsulfanylphenylethynyl)guanosine]",Stokes shift,[1],3264 cm⁻¹
same,λem,[1],426 nm
same,λex,[1],374 nm
same,Molar absorption coefficient,[2],19832 M⁻¹ cm⁻¹
same,Wavelength at fluorescence emission maximum,[2],425 nm
same,Wavelength at maximum in UV absorption,[2],343 nm
same,Quantum yield,[2],4.5%
same,melting point,,214 to 216 °C (dec.)
"CCN(CC)c1ccc(C#Cc2nc3c(=O)[nH]c(N)nc3n2[C@@H]2O[C@H](CO)[C@@H](O)[C@H]2O)cc1 [Compound 5e, 8-(4-N,N-diethylaminephenylethynyl)guanosine]",UV-visible spectrum shift relative to compound 5a (parent),[1],red-shifted
same,Stokes shift,[1],5205 cm⁻¹
same,λem,[1],502 nm
same,λex,[1],398 nm
same,HOMO-LUMO gap relative to compound 5a,[1],higher HOMO-LUMO gap
same,Wavelength at fluorescence emission maximum,[2],409 nm
same,Wavelength at maximum in UV absorption,[2],356 nm
same,Quantum yield,[2],2.1%
"CC(=O)c1ccc(C#Cc2nc3c(=O)[nH]c(N)nc3n2[C@@H]2O[C@H](CO)[C@@H](O)[C@H]2O)cc1 [Compound 5f, 8-(4′-Acetophenonephenylethynyl)guanosine]",Stokes shift,[1],6392 cm⁻¹
same,λem,[1],532 nm
same,λex,[1],397 nm
same,Molar absorption coefficient,[2],19589 M⁻¹ cm⁻¹
same,Wavelength at fluorescence emission maximum,[2],509 nm
same,Wavelength at maximum in UV absorption,[2],364 nm
same,Quantum yield,[2],0.44%
"Nc1nc2c(nc(C#Cc3ccc(C(F)(F)F)cc3)n2[C@@H]2O[C@H](CO)[C@@H](O)[C@H]2O)c(=O)[nH]1 [Compound 5g, 8-(4′-Trifluoromethylphenylethynyl)guanosine]",Stokes shift,[1],4539 cm⁻¹
same,λem,[1],468 nm
same,λex,[1],386 nm
same,Wavelength at fluorescence emission maximum,[2],458 nm
same,Wavelength at maximum in UV absorption,[2],348 nm
same,Quantum yield,[2],0.74%
same,melting point,,> 240 °C
"Nc1nc2c(nc(C#Cc3cccc4ccccc34)n2[C@@H]2O[C@H](CO)[C@@H](O)[C@H]2O)c(=O)[nH]1 [Compound 5h, 8-(Napthylethynyl)guanosine]",Stokes shift,[1],4604 cm⁻¹
same,λem,[1],465 nm
same,λex,[1],383 nm
same,Molar absorption coefficient,[2],15141 M⁻¹ cm⁻¹
same,Wavelength at fluorescence emission maximum,[2],467 nm
same,Wavelength at maximum in UV absorption,[2],357 nm
same,Quantum yield,[2],5.4%
"Nc1ncnc2c1nc(C#Cc1ccccc1)n2[C@@H]1O[C@H](CO)[C@@H](O)[C@H]1O [Compound 6a, 8-(Phenylethynyl)adenosine]",Stokes shift,[1],3383 cm⁻¹
same,λem,[1],397 nm
same,λex,[1],350 nm
same,Wavelength at fluorescence emission maximum,[2],398 nm
same,Wavelength at maximum in UV absorption,[2],322 nm
same,Quantum yield,[2],49%
same,melting point,,168 to 170 °C (dec.)
"Cc1ccc(C#Cc2nc3c(N)ncnc3n2[C@@H]2O[C@H](CO)[C@@H](O)[C@H]2O)cc1 [Compound 6b, 8-(4′-Methylphenylethynyl)adenosine]",Stokes shift,[1],3126 cm⁻¹
same,λem,[1],393 nm
same,λex,[1],350 nm
same,Molar absorption coefficient,[2],18772 M⁻¹ cm⁻¹
same,Wavelength at fluorescence emission maximum,[2],393 nm
same,Wavelength at maximum in UV absorption,[2],323 nm
same,Quantum yield,[2],54%
same,melting point,,196 to 198 °C (dec.)
"CCN(CC)c1ccc(C#Cc2nc3c(N)ncnc3n2[C@@H]2O[C@H](CO)[C@@H](O)[C@H]2O)cc1 [Compound 6e, 8-(4-N,N-Diethylaminephenylethynyl)adenosine]",Stokes shift,[1],4747 cm⁻¹
same,Absorption maxima shift relative to compound 7a (parent),[1]; compared with the guanosine series,more significant differences
same,λem,[1],506 nm
same,λex,[1],408 nm
same,Wavelength at fluorescence emission maximum,[2],441 nm
same,Wavelength at maximum in UV absorption,[2],365 nm
same,Quantum yield,[2],8.4%
"CC(=O)c1ccc(C#Cc2nc3c(N)ncnc3n2[C@@H]2O[C@H](CO)[C@@H](O)[C@H]2O)cc1 [Compound 6f, 8-(4′-Acetophenonephenylethynyl)adenosine]",Stokes shift,[1],6454 cm⁻¹
same,λem,[1],493 nm
same,λex,[1],374 nm
same,Molar absorption coefficient,[2],19639 M⁻¹ cm⁻¹
same,Wavelength at fluorescence emission maximum,[2],493 nm
same,Wavelength at maximum in UV absorption,[2],343 nm
same,Quantum yield,[2],4.9%
"Nc1ncnc2c1nc(C#Cc1cccc3ccccc13)n2[C@@H]1O[C@H](CO)[C@@H](O)[C@H]1O [Compound 6h, 8-(Napthylethynyl)adenosine]",Stokes shift,[1],3394 cm⁻¹
same,λem,[1],431 nm
same,λex,[1],376 nm
same,Molar absorption coefficient,[2],22970 M⁻¹ cm⁻¹
same,Wavelength at fluorescence emission maximum,[2],430 nm
same,Wavelength at maximum in UV absorption,[2],349 nm
same,Quantum yield,[2],49%
Nc1nc2c(nc(C#Cc3ccccc3C(F)(F)F)n2[C@@H]2O[C@H](CO)[C@@H](O)[C@H]2O)c(=O)[nH]1 [Guanosine —CF3 ortho],Wavelength at fluorescence emission maximum,[2],421 nm
same,Wavelength at maximum in UV absorption,[2],347 nm
same,Quantum yield,[2],1.1%
Nc1nc2c(nc(C#Cc3ccc(Cl)cc3)n2[C@@H]2O[C@H](CO)[C@@H](O)[C@H]2O)c(=O)[nH]1 [Guanosine —Cl para],Molar absorption coefficient,[2],23317 M⁻¹ cm⁻¹
same,Wavelength at fluorescence emission maximum,[2],431 nm
same,Wavelength at maximum in UV absorption,[2],338 nm
same,Quantum yield,[2],1.9%
Nc1nc2c(nc(C#Cc3ccc(F)cc3)n2[C@@H]2O[C@H](CO)[C@@H](O)[C@H]2O)c(=O)[nH]1 [Guanosine —F para],Molar absorption coefficient,[2],11304 M⁻¹ cm⁻¹
same,Wavelength at fluorescence emission maximum,[2],416 nm
same,Wavelength at maximum in UV absorption,[2],333 nm
same,Quantum yield,[2],2.4%
COc1cccc(C#Cc2nc3c(=O)[nH]c(N)nc3n2[C@@H]2O[C@H](CO)[C@@H](O)[C@H]2O)c1 [Guanosine —OCH3 meta],Molar absorption coefficient,[2],20261 M⁻¹ cm⁻¹
same,Wavelength at fluorescence emission maximum,[2],420 nm
same,Wavelength at maximum in UV absorption,[2],334 nm
same,Quantum yield,[2],3.6%
